Test results from BindingDB's records for doi:10.1016/j.bmcl.2005.07.060 (Universidad De Buenos Aires, 2005).

What follows are molecules tested against farnesyl pyrophosphate synthase (Trypanosoma cruzi) (assay: Inhibitory concentration against Trypanosoma cruzi farnesyl pyrophosphate synthase (TcFPPS)).

| SMILES | IC50 [µM] |
| --- | --- |
| CCCC(N)(P(=O)(O)O)P(=O)(O)O [(1-Amino-1-phosphono-butyl)-phosphonic acid] | 30.8 |
| CCCCCCC(N)(P(=O)(O)O)P(=O)(O)O [(1-Amino-1-phosphono-heptyl)-phosphonic acid] | 3.57 |
| CC(N)(P(=O)(O)O)P(=O)(O)O [(1-Amino-1-phosphono-ethyl)-phosphonic acid] | 66.7 |
| CCC(N)(P(=O)(O)O)P(=O)(O)O [(1-Amino-1-phosphono-propyl)-phosphonic acid] | 150 |
| CCCCC(N)(P(=O)(O)O)P(=O)(O)O [(1-Amino-1-phosphono-pentyl)-phosphonic acid] | 3.91 |
| CCCCCC(N)(P(=O)(O)O)P(=O)(O)O [(1-Amino-1-phosphono-hexyl)-phosphonic acid] | 0.382 |
